According to patent US20160002710A1, “REPORTER PHAGE AND […] BACTERIA” (priority 2014, published 2016):
Values after ≈ are worked out from the molar mass of the structure shown.

How the values were obtained:
Format in all cases: cell-based
S. flexneri ATCC 25875 [1] = test: microbe, parasite or virus in culture; conditions: Shigella flexneri, ATCC25875; growth (A625) after 20 h at 35° C.; read-out: minimum inhibitory concentration
Method: (§1) Cells (5×10^5 CFU/mL) and antibiotics were prepared in cation-adjusted Mueller Hinton broth according to CLSI methodology. […] The same Shigella inoculum was grown for 5 h at 35° C. in the presence of antibiotics, infected with Shfl::luxAB, and bioluminescence assayed after 20 min.
(§2) Therefore, the ability of Shfl25875::luxAB to confer bioluminescence signal to Shigella spp. in the presence of antibiotics was compared to the standard CLSI broth microdilution method. […] Cells were incubated with a range of antibiotic concentrations in microtiter plates, incubated at 35° C., and assessed for growth (A625) after 20 h as per the CLSI protocol, or bioluminescence following infection by Shfl25875::luxAB.

E. coli ATCC 25922 = test: microbe, parasite or virus in culture; conditions: Escherichia coli, ATCC25922; cation-adjusted Mueller Hinton broth, 35° C., 20 h; within the acceptable range
Method: as §1

S. flexneri ATCC 25875 [2] = test: Reporter phage (Shfl25875::luxAB) bioluminescence antibiotic susceptibility assay; conditions: 5 h growth with antibiotic, infection with reporter phage, read after 20 min
Method: as §1, §2

CC1(C)S[C@@H]2[C@H](NC(=O)[C@H](N)c3ccccc3)C(=O)N2[C@H]1C(=O)O [ampicillin]
MIC (S. flexneri ATCC 25875 [1]): 1 µg/mL (≈ 2.86 µM) | MIC (E. coli ATCC 25922): 2 µg/mL (≈ 5.72 µM) | Bioluminescence at antibiotic concentrations at the minimum inhibitory concentration or higher (S. flexneri ATCC 25875 [2]): at or close to background
